Article PMC3445454, “Broad and Cross-Clade CD4^+ T-Cell Responses Elicited by a DNA Vaccine Encoding Highly Conserved and Promiscuous HIV-1 M-Group Consensus Peptides” (PLoS ONE, 2012)
Numbering of substitutions follows the chain as printed. Where two headings read alike, the source gives them in different places. Ends that are not written are not given here.

Experiments:
Assay in all cases: biochemical
[1] = target: T1, HLA-DP DPA1*01:03/DPB1*03:01 (Homo sapiens, UniProt P04440+P20036, A65V/A84D/A85E/E86D/F38Y/G113D/G114E/G40L/I94L/L37V/M105V/M116V/P115A/R125K/T199I); type: binding
T1 sequence (P20036 29-260): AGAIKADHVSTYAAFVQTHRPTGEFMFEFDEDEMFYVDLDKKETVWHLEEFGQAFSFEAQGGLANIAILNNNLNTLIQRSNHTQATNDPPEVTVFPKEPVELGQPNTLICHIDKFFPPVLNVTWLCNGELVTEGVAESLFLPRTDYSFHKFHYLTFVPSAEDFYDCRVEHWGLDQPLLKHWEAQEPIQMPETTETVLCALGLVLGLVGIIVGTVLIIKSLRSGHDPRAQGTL
T1 sequence (P04440 30-258 L37V/F38Y/G40L/A65V/A84D/A85E/E86D/I94L/M105V/G113D/G114E/P115A/M116V/R125K/T199I): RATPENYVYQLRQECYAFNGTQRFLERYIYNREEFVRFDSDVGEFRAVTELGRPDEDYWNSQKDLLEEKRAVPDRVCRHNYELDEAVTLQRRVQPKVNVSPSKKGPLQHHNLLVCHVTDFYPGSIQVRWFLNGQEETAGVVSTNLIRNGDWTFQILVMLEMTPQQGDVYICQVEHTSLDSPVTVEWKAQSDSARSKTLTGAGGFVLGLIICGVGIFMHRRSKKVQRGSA

HLA-DR DRB4*01:01 = HLA-DR DRB4*01:01 (Homo sapiens, UniProt P01903+P13762, G164S); type: binding
HLA-DR DRB1*09:01 = HLA-DR DRB1*09:01 (Homo sapiens, UniProt P01903+P01911, A100R/A103E/D57H/D86V/F55Y/F60I/F76Y/I96F/K127E/L162R/M171V/P40D/Q125H/Q99R/R33Q/R42F/S133A/S66N/T210M/V115G/W38K/Y107V/Y59G/Y89S); type: binding
HLA-DR DRB5*01:01 = HLA-DR DRB5*01:01 (Homo sapiens, UniProt P01903+Q30154); type: binding
HLA-DR DRB1*12:01 = HLA-DR DRB1*12:01 (Homo sapiens, UniProt P01903+P01911, A100R/A169T/D57E/D86V/F55L/H45Y/K41T/L162R/M171V/P40S/Q125H/Q178H/Q39Y/Q99D/R42G/S66L/T262R/V114A/V67L/W38E/Y59H/Y61H/Y89S); type: binding
HLA-DR DRB1*08:02 = HLA-DR DRB1*08:02 (Homo sapiens, UniProt P01903+P01911, A100R/A103L/A169T/F76Y/H45Y/I96F/K41T/L162R/M171V/P40S/Q125H/Q178H/Q39Y/Q99D/R218S/R42G/S66Y/V115G/W38E); type: binding
[2] = target: HLA-DP DPA1*03:01/DPB1*04:02 (Homo sapiens, UniProt P04440+P20036, A42M/A65V/A84D/A85E/L207M/L97S)
HLA-DR DRB1*03:01 = HLA-DR DRB1*03:01 (Homo sapiens, UniProt P01903+P01911, A100K/A102G/A103R/A169T/F55Y/I96L/K41T/L162R/M171V/P40S/Q125H/Q178H/Q39Y/R42S/S66N/T106N/T262R/W38E/Y61H); type: binding
[3] = target: T2, HLA-DP DPA1*02:01/DPB1*05:01 (Homo sapiens, UniProt P04440+P20036, A65V/A84E/F191V/F64L/G113D/G114E/K142R/L158P/M116V/M62Q/P115A/Q81R/R125K/T114A/T199I/T259P/V234M); type: binding
T2 sequence (P20036 29-260 A42M/M62Q/Q81R/T114A/K142R/L158P/F191V/T259P): T1 sequence (P20036 29-260) with A14M, M34Q, Q53R, T86A, K114R, L130P, F163V, T231P
T2 sequence (P04440 30-258 F64L/A65V/A84E/G113D/G114E/P115A/M116V/R125K/T199I/V234M): T1 sequence (P04440 30-258 L37V/F38Y/G40L/A65V/A84D/A85E/E86D/I94L/M105V/G113D/G114E/P115A/M116V/R125K/T199I) with V8L, Y9F, L11G, F35L, D55E, E56A, D57E, L65I, V76M, V205M

[4] = target: T3, HLA-DP DPA1*01:03/DPB1*02:01 (Homo sapiens, UniProt P04440+P20036, A65V/A84D/A85E/K98E); type: binding
T3 sequence (P20036 29-260): T1 sequence (P20036 29-260)
T3 sequence (P04440 30-258 A65V/A84D/A85E/K98E): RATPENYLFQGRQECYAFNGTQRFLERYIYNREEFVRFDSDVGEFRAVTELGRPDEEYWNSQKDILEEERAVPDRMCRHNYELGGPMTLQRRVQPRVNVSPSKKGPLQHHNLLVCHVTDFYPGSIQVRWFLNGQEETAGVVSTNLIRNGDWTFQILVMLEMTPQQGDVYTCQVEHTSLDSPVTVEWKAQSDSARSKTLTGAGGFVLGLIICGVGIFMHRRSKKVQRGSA

[5] = read-out: Binding capacity/IC50 (nM) DRB4*01:01
[6] = read-out: Binding capacity/IC50 (nM) DPA1*02:01 DPB1*05:01
[7] = read-out: Binding capacity/IC50 (nM) DPA1*01:03 DPB1*02:01
[8] = read-out: Binding capacity/IC50 (nM) DPA1*01:03 DPB1*03:01
[9] = read-out: Binding capacity/IC50 (nM) DRB1*09:01
[10] = read-out: Binding capacity/IC50 (nM) DRB5*01:01
[11] = read-out: Binding capacity/IC50 (nM) DRB1*12:01
[12] = read-out: Binding capacity/IC50 (nM) DRB1*08:02
[13] = read-out: Binding capacity/IC50 (nM) DRB1*03:01

Compound	IC50 [1] [nM]	IC50 (HLA-DR DRB4*01:01; [5]) [nM]	IC50 (HLA-DR DRB1*09:01) [nM]	IC50 (HLA-DR DRB5*01:01) [nM]	IC50 (HLA-DR DRB1*12:01) [nM]	IC50 (HLA-DR DRB1*08:02) [nM]	IC50 [2] [nM]	IC50 (HLA-DR DRB1*03:01) [nM]	IC50 [3, 6] [nM]	IC50 [4, 7] [nM]	IC50 [1, 8] [nM]	IC50 (HLA-DR DRB1*09:01; [9]) [nM]	IC50 (HLA-DR DRB5*01:01; [10]) [nM]	IC50 (HLA-DR DRB1*12:01; [11]) [nM]	IC50 (HLA-DR DRB1*08:02; [12]) [nM]	IC50 (HLA-DR DRB1*03:01; [13]) [nM]	IC50 (HLA-DR DRB4*01:01) [nM]	IC50 [4] [nM]	IC50 [3] [nM]
CSCC[C@H](NC(=O)[C@H](CCCCN)NC(=O)[C@H](C)NC(=O)[C@H](Cc1ccc(O)cc1)NC(=O)[C@H](CCCCN)NC(=O)CNC(=O)[C@@H](NC(=O)[C@H](CCCCN)NC(=O)[C@H](CC(C)C)NC(=O)[C@H](CC(N)=O)NC(=O)[C@H](CCCCN)NC(=O)[C@H](Cc1ccccc1)NC(=O)[C@@H]1CCCN1C(=O)[C@H](CCC(=O)O)NC(=O)[C@@H](N)CCC(N)=O)[C@@H](C)O)C(N)=O [RT(343-357)]	6510	2920	335	1.6	239	947	4210	23300	1340	115									
CC[C@H](C)[C@H](NC(=O)[C@H](CCCCN)NC(=O)[C@H](CCC(N)=O)NC(=O)[C@@H](NC(=O)[C@H](C)NC(=O)[C@H](CCC(=O)O)NC(=O)[C@@H](N)[C@@H](C)O)C(C)C)C(=O)N[C@@H](C)C(=O)N[C@H](C(=O)N[C@@H](CCC(=O)O)C(=O)N[C@@H](CO)C(=O)N[C@H](C(=O)N[C@H](C(=O)N[C@H](C(=O)N[C@@H](Cc1c[nH]c2ccccc12)C(=O)NCC(=O)N[C@@H](CCCCN)C(=O)N[C@H](C(=O)N1CCC[C@H]1C(=O)N[C@@H](CCCCN)C(=O)N[C@@H](Cc1ccccc1)C(=O)N[C@@H](CCCNC(=N)N)C(=O)N[C@@H](CC(C)C)C(N)=O)[C@@H](C)O)[C@@H](C)CC)C(C)C)[C@@H](C)CC)[C@@H](C)O [RT(369-391)]		20					1740		154	2210	5360	310	68	471	24	287			
CC(C)C[C@H](NC(=O)[C@H](CCCCN)NC(=O)[C@@H](NC(=O)[C@H](CC(C)C)NC(=O)[C@@H]1CCCN1C(=O)[C@@H]1CCCN1C(=O)[C@@H](NC(=O)[C@H](CC(N)=O)NC(=O)[C@@H](NC(=O)[C@H](Cc1ccccc1)NC(=O)[C@H](CCC(=O)O)NC(=O)[C@H](Cc1c[nH]c2ccccc12)NC(=O)[C@@H](N)CCC(=O)O)C(C)C)[C@@H](C)O)C(C)C)C(=O)N[C@@H](Cc1c[nH]c2ccccc12)C(=O)N[C@@H](Cc1ccc(O)cc1)C(N)=O [RT(413-427)]		1420	57		260	58	7	469	2820	639	5710		14						
CC[C@H](C)[C@H](NC(=O)[C@@H]1CCCN1C(=O)[C@H](CCC(=O)O)NC(=O)[C@@H](N)CCCCN)C(=O)N[C@H](C(=O)NCC(=O)N[C@@H](C)C(=O)N[C@@H](CCC(=O)O)C(=O)N[C@H](C(=O)N[C@@H](Cc1ccccc1)C(=O)N[C@@H](Cc1ccc(O)cc1)C(=O)N[C@H](C(=O)N[C@@H](CC(=O)O)C(=O)NCC(=O)N[C@@H](C)C(N)=O)C(C)C)[C@@H](C)O)C(C)C [RT(431-445)]	28400	243					132		> 30000	30		23	148	293	19				
CC[C@H](C)[C@H](NC(=O)CNC(=O)[C@H](CCCCN)NC(=O)[C@H](Cc1c[nH]cn1)NC(=O)[C@H](C)NC(=O)[C@@H]1CCCN1C(=O)[C@@H](NC(=O)[C@H](Cc1c[nH]c2ccccc12)NC(=O)[C@H](CO)NC(=O)[C@H](CC(C)C)NC(=O)[C@H](Cc1ccc(O)cc1)NC(=O)[C@@H](NC(=O)[C@H](CCCCN)NC(=O)[C@H](CCC(=O)O)NC(=O)[C@@H](N)CCCCN)C(C)C)C(C)C)C(=O)NCC(=O)NCC(=O)N[C@@H](CC(N)=O)C(=O)N[C@@H](CCC(=O)O)C(N)=O [RT(528-546)]	76	57					150		3560	45		33	16	2100		612			
CC[C@H](C)[C@H](NC(=O)[C@H](Cc1ccc(O)cc1)NC(=O)CNC(=O)[C@H](CO)NC(=O)[C@H](C)NC(=O)[C@@H](NC(=O)[C@H](Cc1c[nH]cn1)NC(=O)[C@@H](NC(=O)[C@H](C)NC(=O)[C@@H](NC(=O)[C@H](CC(C)C)NC(=O)[C@@H](NC(=O)[C@@H](NC(=O)[C@H](CCCCN)NC(=O)CNC(=O)[C@@H](N)CCC(=O)O)[C@@H](C)CC)[C@@H](C)CC)C(C)C)C(C)C)C(C)C)C(=O)N[C@@H](CCC(=O)O)C(N)=O [integrase(69-85)]							212		2710	4.5	1990	58	523	2940	11	7940	56		
DEELLKAVRIIKILYQSNP-NH2 [rev(9-27)]							5.8		370		466	124		66	9.5	632		7	
IVALIIAIVVWTIV-NH2 [vpu(13-26)]							1300		> 30000	29900	2580	6640	> 30000	12700	765	> 30000			
LNKIVRMYSPVSILDI-NH2 [p24(138-153)]		25					1		220		16	36			3.1			357	
NYPIVQNLQGQMVHQAISPR-NH2 [p17(131-132)/p24(1-18)]		131					484			55	344	248		940	71				2520
